Measured values reported in ChEMBL document CHEMBL4414591, “Isolation and Total Synthesis of Mabuniamide, a Lipopeptide from an Okeania sp. Marine Cyanobacterium” (J Nat Prod, 2019).

Key:
L6 [1] = test: Cytotoxicity against rat L6 cells assessed as decrease in cell viability at 10 to 40 uM incubated for 22 hrs by MTT assay; format: cell-based; conditions: l6, 22 h
Plasmodium falciparum = test: Antiprotozoal activity against erythrocytic stage of Plasmodium falciparum 3D7 incubated for 72 hrs by lactate dehydrogenase assay; format: functional, organism-based; conditions: 3D7, 72 h
L6 [2] = test: Induction of glucose uptake in rat L6 cells incubated for 22 hrs in presence of glucose by microplate reader assay; format: functional, cell-based

IC50 (Plasmodium falciparum) | SMILES | Activity (L6 [1]) | Activity (L6 [2])
1400 nM | CCCC(=O)N(C)[C@@H](C)C(=O)N1CCC[C@H]1C(=O)N(C)[C@@H](Cc1ccccc1)C(=O)N[C@@H](CC(C)C)C(=O)N(C)[C@@H](C(=O)N[C@H](C(=O)NCC(=O)N(C)[C@H](Cc1ccccc1)C(=O)N1CCC[C@H]1C(=O)OC)C(C)C)C(C)C (stereo in doubt; form 1) [listing 1 of 2 here] | Non-Toxic | –
2800 nM | CCCC(=O)N(C)[C@@H](C)C(=O)N1CCC[C@H]1C(=O)N(C)[C@H](Cc1ccccc1)C(=O)N[C@@H](CC(C)C)C(=O)N(C)[C@@H](C(=O)N[C@H](C(=O)NCC(=O)N(C)[C@@H](Cc1ccccc1)C(=O)N1CCC[C@H]1C(=O)OC)C(C)C)C(C)C | – | –
– | CCCC(=O)N(C)[C@@H](C)C(=O)N1CCC[C@H]1C(=O)N(C)[C@@H](Cc1ccccc1)C(=O)N[C@@H](CC(C)C)C(=O)N(C)[C@@H](C(=O)N[C@H](C(=O)NCC(=O)N(C)[C@H](Cc1ccccc1)C(=O)N1CCC[C@H]1C(=O)OC)C(C)C)C(C)C (stereo in doubt; form 1) [listing 2 of 2 here] | – | Dose-dependent effect
– | CCCC(=O)N(C)[C@@H](C)C(=O)N1CCC[C@H]1C(=O)N(C)[C@@H](Cc1ccccc1)C(=O)N[C@@H](CC(C)C)C(=O)N(C)[C@@H](C(=O)N[C@H](C(=O)NCC(=O)N(C)[C@H](Cc1ccccc1)C(=O)N1CCC[C@H]1C(=O)OC)C(C)C)C(C)C (stereo in doubt; form 2) | – | Dose-dependent effect
